Data published in the OligoGym collection.
These antisense oligonucleotides have a phosphorothioate backbone; sugars and methylation of C are not fully specified.

Experiments:
Settings in all cases: ASO
EGR1 = target: EGR1
REL = target: REL
SUMO1 = target: SUMO1
IL15 = target: IL15
Further: test concentration or dose not given here.

With CGCAGGCGAAGGGCTTTT the remaining target (mRNA or protein) (fraction of control) (EGR1) was at least 1.

For CGGCAGGGTAGGCAGGAG, the remaining target (mRNA or protein) (fraction of control) (EGR1) was 0.56.

CGGTTGTTGTCTGTGCTG was tested, and the remaining target (mRNA or protein) (fraction of control) (REL) was 0.38.

CTCACTAGGCCACTGACC showed a remaining target (mRNA or protein) (fraction of control) (EGR1) of at least 1.

Work on CTCAGTTGAAGGTTTTGC yielded a remaining target (mRNA or protein) (fraction of control) (SUMO1) of at least 1.

CTCCTCCTTCTTCCCGCC gave a remaining target (mRNA or protein) (fraction of control) (REL) of 0.78.

Work on CTCGCCCGTGTCCGCCTG yielded a remaining target (mRNA or protein) (fraction of control) (EGR1) of at least 1.

CTGTCCAATGACTTTGAG was tested, and the remaining target (mRNA or protein) (fraction of control) (SUMO1) was at least 1.

Sequence CTTCCCGCAGGCAGCTCC has a remaining target (mRNA or protein) (fraction of control) (REL) of 0.56.

CTTTGGAGTTAGTCATTA gave a remaining target (mRNA or protein) (fraction of control) (SUMO1) of at least 1.

Work on CTTTTCCATAATAGTTCA yielded a remaining target (mRNA or protein) (fraction of control) (REL) of 0.85.

Sequence GAAAATGTCAGTGTTCGG has a remaining target (mRNA or protein) (fraction of control) (EGR1) of at least 1.

For GAAGTCTTGGATTATCAG, the remaining target (mRNA or protein) (fraction of control) (REL) was at least 1.

For GAATGGTGGGATACCTTG, the remaining target (mRNA or protein) (fraction of control) (REL) was 0.43.

GAGAGGAGAAGGAGGTGG gave a remaining target (mRNA or protein) (fraction of control) (EGR1) of at least 1.

Sequence GAGGTTTATATGGGTCAT has a remaining target (mRNA or protein) (fraction of control) (REL) of at least 1.

For GATAAACTTCAATCACAT, the remaining target (mRNA or protein) (fraction of control) (SUMO1) was at least 1.

GATGGCGGCGGCGGCTCC gave a remaining target (mRNA or protein) (fraction of control) (EGR1) of at least 1.

Sequence GATGTCAGGAAAAGACTC has a remaining target (mRNA or protein) (fraction of control) (EGR1) of at least 1.

GCAGTAACTTCCGCTACG gave a remaining target (mRNA or protein) (fraction of control) (SUMO1) of at least 1.

GGAAGGGCTTCTGGTCTG gave a remaining target (mRNA or protein) (fraction of control) (EGR1) of at least 1.

Work on GGAATTGGCTCTGAGAAC yielded a remaining target (mRNA or protein) (fraction of control) (EGR1) of at least 1.

Sequence GGCACTTCAGTAACTTTC has a remaining target (mRNA or protein) (fraction of control) (SUMO1) of 0.79.

With GGGCCTGGCCGGGTTACA the remaining target (mRNA or protein) (fraction of control) (EGR1) was 0.4.

For GGGCGAGTGAGGAAAGGA, the remaining target (mRNA or protein) (fraction of control) (EGR1) was 0.63.

In the case of GGGTCTCCGCACAGCAGC, the remaining target (mRNA or protein) (fraction of control) (SUMO1) is reported as at least 1.

GGGTTTACAAATCCTTCC showed a remaining target (mRNA or protein) (fraction of control) (SUMO1) of at least 1.

In the case of GGTAGGAAGAGAGAGAGG, the remaining target (mRNA or protein) (fraction of control) (EGR1) is reported as at least 1.

For GGTCCTGGGAGCCCGACT, the remaining target (mRNA or protein) (fraction of control) (EGR1) was at least 1.

Sequence GGTGAAGAACTTGGACAT has a remaining target (mRNA or protein) (fraction of control) (EGR1) of at least 1.

Work on GTATTGCCTGAGCGTGGG yielded a remaining target (mRNA or protein) (fraction of control) (REL) of 0.57.

GTCTCAAGTCTCTTGGGT showed a remaining target (mRNA or protein) (fraction of control) (REL) of 0.41.

Work on GTCTGCGTTCTTGTCCAA yielded a remaining target (mRNA or protein) (fraction of control) (REL) of at least 1.

Sequence GTCTTTGACAGTATGATT has a remaining target (mRNA or protein) (fraction of control) (SUMO1) of at least 1.

With GTGGGCAGAAAGGATTGT the remaining target (mRNA or protein) (fraction of control) (EGR1) was 0.8.

For GTTTCTTGAGATGTGTTG, the remaining target (mRNA or protein) (fraction of control) (SUMO1) was 0.86.

With GTTTGATGAGCTGGGACT the remaining target (mRNA or protein) (fraction of control) (EGR1) was at least 1.

Work on TAATACAATAGAATATGC yielded a remaining target (mRNA or protein) (fraction of control) (EGR1) of at least 1.

For TATCCAAAATCCATGCAA, the remaining target (mRNA or protein) (fraction of control) (EGR1) was at least 1.

TCACCTTATCTGTCATCT showed a remaining target (mRNA or protein) (fraction of control) (SUMO1) of at least 1.

Work on TCATATTCACAGAACAAT yielded a remaining target (mRNA or protein) (fraction of control) (REL) of at least 1.

TCATCGGCATTGTTGTAA gave a remaining target (mRNA or protein) (fraction of control) (REL) of 0.54.

Sequence TCATTTATCATGCTGTTA has a remaining target (mRNA or protein) (fraction of control) (REL) of at least 1.

TCCATCTCCCACTGAAAG was tested, and the remaining target (mRNA or protein) (fraction of control) (SUMO1) was 0.53.

Work on TCCCAAAGTGCTAGGATT yielded a remaining target (mRNA or protein) (fraction of control) (REL) of 0.7.

Work on TCCGTTTTGAACACCACA yielded a remaining target (mRNA or protein) (fraction of control) (SUMO1) of 0.29.

For TCGAGTGGTTTGGCTGGG, the remaining target (mRNA or protein) (fraction of control) (EGR1) was at least 1.

TCGCTGCGGCTGAAGTTG was tested, and the remaining target (mRNA or protein) (fraction of control) (EGR1) was at least 1.

In the case of TCTCCTCCTCCTGTCCTT, the remaining target (mRNA or protein) (fraction of control) (EGR1) is reported as at least 1.

For TCTCTCACAACTGCATCA, the remaining target (mRNA or protein) (fraction of control) (REL) was 0.58.

Work on TCTGCTTTCTTGTCCTTC yielded a remaining target (mRNA or protein) (fraction of control) (EGR1) of at least 1.

With TCTTTCCCCTTTCCCTTT the remaining target (mRNA or protein) (fraction of control) (EGR1) was 0.93.

Work on TCTTTCTGAACTTTGTCA yielded a remaining target (mRNA or protein) (fraction of control) (REL) of 0.98.

Sequence TGAATCTCACTGCTATCC has a remaining target (mRNA or protein) (fraction of control) (SUMO1) of at least 1.

TGATCCACCCGCCTTGGC was tested, and the remaining target (mRNA or protein) (fraction of control) (REL) was at least 1.

Work on TGCGGATGTGGCGGGTGA yielded a remaining target (mRNA or protein) (fraction of control) (EGR1) of at least 1.

With TGCTGACCTGGGCCGGGA the remaining target (mRNA or protein) (fraction of control) (EGR1) was at least 1.

In the case of TGCTGTCGTTGGATGGCA, the remaining target (mRNA or protein) (fraction of control) (EGR1) is reported as at least 1.

TGGGTGCAGGCTCCAGGG gave a remaining target (mRNA or protein) (fraction of control) (EGR1) of at least 1.

In the case of TGTAATCCCAGCACTTTG, the remaining target (mRNA or protein) (fraction of control) (REL) is reported as 0.73.

In the case of TTACTGTTACGGGTTCTG, the remaining target (mRNA or protein) (fraction of control) (REL) is reported as 0.64.

For TTCATTGGAACACCCTGT, the remaining target (mRNA or protein) (fraction of control) (SUMO1) was 0.32.

Work on TTCCTCCATTCCCAGTTC yielded a remaining target (mRNA or protein) (fraction of control) (SUMO1) of at least 1.

TTCTTTGAGTTTCTTGAG gave a remaining target (mRNA or protein) (fraction of control) (SUMO1) of at least 1.

With TTCTTTTGGAGTATGATT the remaining target (mRNA or protein) (fraction of control) (SUMO1) was at least 1.

TTGTATTCGCTATGTCCA gave a remaining target (mRNA or protein) (fraction of control) (REL) of 0.53.

TTTAATCTTTACAATAAT was tested, and the remaining target (mRNA or protein) (fraction of control) (IL15) was at least 1.

In the case of TTTAGAAGTAAACACAAG, the remaining target (mRNA or protein) (fraction of control) (IL15) is reported as at least 1.

TTTCTACGTGATCCTGGC gave a remaining target (mRNA or protein) (fraction of control) (REL) of 0.85.

TTTGCTTTATTGCCGTAA gave a remaining target (mRNA or protein) (fraction of control) (REL) of at least 1.
